# In patent publication US20140005163A1 (NOVARTIS AG, priority 2010, published 2014):
# Legend:
# Solubility at pH 6.8 = assay type: physicochemical; conditions: pH 6.8, aqueous buffer, thermodynamic from solid; read-out: solubility
# Method in brief: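 Following the procedure of Zhou et al. (2007), compound solubility was determined at pH 6.8.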
# PI3K delta = molecular target: T1, PI3K delta (Homo sapiens, UniProt O00329); experiment: PI3K delta kinase assay (Kinase-Glo luminescence); assay type: biochemical
# T1 construct: for the full-length p110-d subunit are generated and fused by overlapping PCR; p85(iSH2) fusion partner (see partner chain) (N); His tag (C); made in house; host or cells: baculovirus; Tn5 (Trichoplusia ni) or TiniPro insect cells
# Method in brief: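 Lipid kinase activity of a His-tagged p110δ full-length/p85 iSH2 fusion (10 nM) toward bovine liver phosphatidylinositol (10 μg/mL) at 1 μM ATP, pH 7.5, 60 min, room temperature. ATP consumption is quantified by luciferase-based luminescence. Four-parameter logistic fitting gives IC50.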
# [1] = tested on: PKB Ser473 phosphorylation in Rat1-myr-HA-p110 delta cells; experiment: Reverse protein array assay, PKB Ser473 phosphorylation in Rat1-myr-p110 delta cells; assay type: cell-based; conditions: read-out: p-PKB IC50
# Method in brief: (§1)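 After at least 20 h of culture, the p110 isoform-transfected Rat1 lines receive compound in an 8-step dilution series, keeping DMSO at 0.2%, for 30 minutes. Cells are then lysed and lysates arrayed on chips for fluorescence detection of Ser473-phosphorylated PKB.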
# [2] = tested on: PKB Ser473 phosphorylation in Rat1-myr-HA-p110 beta cells; experiment: Reverse protein array assay, PKB Ser473 phosphorylation in Rat1-myr-p110 beta cells; assay type: cell-based; conditions: 0.5 h, pAkt Ser473, 30 minutes incubation, read-out: p-PKB IC50
# Method in brief: as §1
# [3] = tested on: PKB Ser473 phosphorylation in Rat1-myr-HA-p110 alpha cells; experiment: Reverse protein array assay, PKB Ser473 phosphorylation in Rat1-myr-p110 alpha cells; assay type: cell-based; conditions: 0.5 h, pAkt Ser473, 30 minutes compound incubation, read-out: p-PKB IC50
# Method in brief: as §1
# T1 sequence (O00329 with tags, fused parts or gaps limits assumed): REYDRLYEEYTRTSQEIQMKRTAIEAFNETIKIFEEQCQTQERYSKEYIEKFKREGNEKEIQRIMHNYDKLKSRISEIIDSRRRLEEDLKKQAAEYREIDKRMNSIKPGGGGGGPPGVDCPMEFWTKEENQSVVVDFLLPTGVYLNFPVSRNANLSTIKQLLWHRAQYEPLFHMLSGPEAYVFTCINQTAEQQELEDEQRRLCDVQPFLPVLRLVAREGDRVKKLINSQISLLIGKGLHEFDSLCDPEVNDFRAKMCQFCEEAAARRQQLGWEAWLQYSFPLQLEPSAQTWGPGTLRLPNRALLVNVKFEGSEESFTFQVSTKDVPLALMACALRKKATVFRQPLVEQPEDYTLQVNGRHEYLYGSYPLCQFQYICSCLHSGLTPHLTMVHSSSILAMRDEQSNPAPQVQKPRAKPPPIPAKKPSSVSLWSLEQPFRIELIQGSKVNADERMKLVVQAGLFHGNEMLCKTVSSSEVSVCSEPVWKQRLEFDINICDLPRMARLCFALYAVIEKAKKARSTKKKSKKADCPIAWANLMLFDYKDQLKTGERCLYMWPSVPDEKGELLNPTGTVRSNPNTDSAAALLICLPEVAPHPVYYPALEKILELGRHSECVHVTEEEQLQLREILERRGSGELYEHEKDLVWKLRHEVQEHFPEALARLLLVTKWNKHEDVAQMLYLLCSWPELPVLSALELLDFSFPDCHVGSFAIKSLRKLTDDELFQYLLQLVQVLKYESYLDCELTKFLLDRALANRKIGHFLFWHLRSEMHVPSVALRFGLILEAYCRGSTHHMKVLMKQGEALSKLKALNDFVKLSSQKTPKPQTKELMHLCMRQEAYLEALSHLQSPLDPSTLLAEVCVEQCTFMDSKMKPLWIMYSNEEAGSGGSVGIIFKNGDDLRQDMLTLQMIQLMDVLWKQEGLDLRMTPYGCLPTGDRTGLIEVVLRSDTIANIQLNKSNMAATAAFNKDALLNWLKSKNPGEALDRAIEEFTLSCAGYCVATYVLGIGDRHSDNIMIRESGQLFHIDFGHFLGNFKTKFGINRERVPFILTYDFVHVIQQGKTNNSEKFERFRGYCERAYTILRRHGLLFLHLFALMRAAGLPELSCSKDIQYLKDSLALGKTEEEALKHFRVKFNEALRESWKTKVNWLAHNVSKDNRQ
smiles,measurement,setting,value
"CCOc1cc(-c2ccc3ncc4c(c3c2)n(-c2cn(C)nc2C)c(=O)n4C)cnc1CC [Example 187, 1-(1,3-Dimethyl-1H-pyrazol-4-yl)-8-(5-ethoxy-6-ethyl-pyridin-3-yl)-3-methyl-1,3-dihydro-imidazo[4,5-c]quinolin-2-one]",solubility,Solubility at pH 6.8,3 µg/mL
same,IC50,PI3K delta,8 nM
same,IC50,[1],24 nM
same,IC50,[2],37 nM
same,IC50,[3],6 nM
"CCc1ncc(-c2ccc3ncc4c(c3c2)n(-c2cn(C)nc2C)c(=O)n4C)cc1O [Example 188, 1-(1,3-Dimethyl-1H-pyrazol-4-yl)-8-(6-ethyl-5-hydroxy-pyridin-3-yl)-3-methyl-1,3-dihydro-imidazo[4,5-c]quinolin-2-one]",solubility,Solubility at pH 6.8,44 µg/mL
same,IC50,PI3K delta,4 nM
same,IC50,[1],41 nM
same,IC50,[2],22 nM
same,IC50,[3],8 nM
"CCn1cc(-n2c(=O)n(C)c3cnc4ccc(-c5cnc(COC)c(OC(C)C)c5)cc4c32)c(C)n1 [Example 191.2, 1-(1-Ethyl-3-methyl-1H-pyrazol-4-yl)-8-(5-isopropoxy-6-methoxymethyl-pyridin-3-yl)-3-methyl-1,3-dihydro-imidazo[4,5-c]quinolin-2-one]",solubility,Solubility at pH 6.8,243 µg/mL
same,IC50,PI3K delta,11 nM
same,IC50,[1],88 nM
same,IC50,[2],58 nM
same,IC50,[3],27 nM
"Cc1nn(C)cc1-n1c(=O)n(C)c2cnc3ccc(-c4cnc(CO)c(OC(CF)CF)c4)cc3c21 [Example 192, 1-(1,3-Dimethyl-1H-pyrazol-4-yl)-8-[5-(2-fluoro-1-fluoromethyl-ethoxy)-6-hydroxymethyl-pyridin-3-yl]-3-methyl-1,3-dihydro-imidazo[4,5-c]quinolin-2-one]",solubility,Solubility at pH 6.8,27 µg/mL
same,IC50,PI3K delta,5 nM
same,IC50,[1],72 nM
same,IC50,[2],38 nM
same,IC50,[3],12 nM
"CCOCc1ncc(-c2ccc3ncc4c(c3c2)n(-c2cn(C)nc2C)c(=O)n4C)cc1OC [Example 196.2, 1-(1,3-Dimethyl-1H-pyrazol-4-yl)-8-(6-ethoxymethyl-5-methoxy-pyridin-3-yl)-3-methyl-1,3-dihydro-imidazo[4,5-c]quinolin-2-one]",solubility,Solubility at pH 6.8,> 459 µg/mL
same,IC50,PI3K delta,160 nM
same,IC50,[1],335 nM
same,IC50,[2],108 nM
same,IC50,[3],129 nM
"CCOc1cc(-c2ccc3ncc4c(c3c2)n(-c2cn(C(C)C)nc2C)c(=O)n4C)cnc1COC [Example 197.2, 8-(5-Ethoxy-6-methoxymethyl-pyridin-3-yl)-1-(1-isopropyl-3-methyl-1H-pyrazol-4-yl)-3-methyl-1,3-dihydro-imidazo[4,5-c]quinolin-2-one]",solubility,Solubility at pH 6.8,225 µg/mL
same,IC50,PI3K delta,24 nM
same,IC50,[1],336 nM
same,IC50,[2],77 nM
same,IC50,[3],77 nM
"COCc1ccc(-c2ccc3ncc4c(c3c2)n(-c2cn(C)nc2Cl)c(=O)n4C)cn1 [Example 203, 1-(3-Chloro-1-methyl-1H-pyrazol-4-yl)-8-(6-methoxymethyl-pyridin-3-yl)-3-methyl-1,3-dihydro-imidazo[4,5-c]quinolin-2-one]",solubility,Solubility at pH 6.8,12 µg/mL
same,IC50,PI3K delta,8 nM
same,IC50,[1],26 nM
same,IC50,[2],13 nM
same,IC50,[3],10 nM
"CCNc1ncc(-c2ccc3ncc4c(c3c2)n(-c2cn(C)nc2C)c(=O)n4C)cc1COC [Example 206.1, 1-(1,3-Dimethyl-1H-pyrazol-4-yl)-8-(6-ethylamino-5-methoxymethyl-pyridin-3-yl)-3-methyl-1,3-dihydro-imidazo[4,5-c]quinolin-2-one]",solubility,Solubility at pH 6.8,8 µg/mL
same,IC50,PI3K delta,7 nM
same,IC50,[1],45 nM
same,IC50,[2],223 nM
same,IC50,[3],11 nM
"CCNc1ncc(-c2ccc3ncc4c(c3c2)n(-c2c(C)nn(C)c2C)c(=O)n4C)cc1COC [Example 206.2, 8-(6-Ethylamino-5-methoxymethyl-pyridin-3-yl)-3-methyl-1-(1,3,5-trimethyl-1H-pyrazol-4-yl)-1,3-dihydro-imidazo[4,5-c]quinolin-2-one]",solubility,Solubility at pH 6.8,> 472 µg/mL
same,IC50,PI3K delta,57 nM
same,IC50,[1],479 nM
same,IC50,[2],959 nM
same,IC50,[3],126 nM
"CCc1ncc(-c2ccc3ncc4c(c3c2)n(-c2cn(C)nc2C)c(=O)n4C)cc1N [Example 208, 8-(5-Amino-6-ethyl-pyridin-3-yl)-1-(1,3-dimethyl-1H-pyrazol-4-yl)-3-methyl-1,3-dihydro-imidazo[4,5-c]quinolin-2-one]",solubility,Solubility at pH 6.8,133 µg/mL
same,IC50,PI3K delta,6 nM
same,IC50,[1],83 nM
same,IC50,[2],17 nM
same,IC50,[3],20 nM
"CO[C@@H]1CCN(c2ccc(-c3ccc4ncc5c(c4c3)n(-c3cn(C)nc3C)c(=O)n5C)cn2)C1 [Example 213.1, 1-(1,3-Dimethyl-1H-pyrazol-4-yl)-8-[6-((R)-3-methoxy-pyrrolidin-1-yl)-pyridin-3-yl]-3-methyl-1,3-dihydro-imidazo[4,5-c]quinolin-2-one]",solubility,Solubility at pH 6.8,217 µg/mL
same,IC50,PI3K delta,691 nM
same,IC50,[1],631 nM
same,IC50,[2],342 nM
same,IC50,[3],125 nM
"Cn1cc(-n2c(=O)n(C)c3cnc4ccc(-c5cncc(C(C)(C)C#N)c5)cc4c32)c(Cl)n1 [Example 220.3, 2-{5-[1-(3-Chloro-1-methyl-1H-pyrazol-4-yl)-3-methyl-2-oxo-2,3-dihydro-1H-imidazo[4,5-c]quinolin-8-yl]-pyridin-3-yl}-2-methyl-propionitrile]",solubility,Solubility at pH 6.8,16 µg/mL
same,IC50,PI3K delta,3 nM
same,IC50,[1],13 nM
same,IC50,[2],6 nM
same,IC50,[3],6 nM
"Cc1nn(C)cc1-n1c(=O)n(C)c2cnc3ccc(-c4cncc(C5(C#N)CCC5)c4)cc3c21 [Example 221.1, 1-{5-[1-(1,3-Dimethyl-1H-pyrazol-4-yl)-3-methyl-2-oxo-2,3-dihydro-1H-imidazo[4,5-c]quinolin-8-yl]-pyridin-3-yl}-cyclobutanecarbonitrile]",solubility,Solubility at pH 6.8,21 µg/mL
same,IC50,PI3K delta,6 nM
same,IC50,[1],41 nM
same,IC50,[2],20 nM
same,IC50,[3],14 nM
"CCN1C(=O)OCc2ncc(-c3ccc4ncc5c(c4c3)n(-c3cn(C)nc3C)c(=O)n5C)cc21 [Example 237, 1-(1,3-Dimethyl-1H-pyrazol-4-yl)-8-(1-ethyl-2-oxo-1,4-dihydro-2H-pyrido[3,2-d][1,3]oxazin-7-yl)-3-methyl-1,3-dihydro-imidazo[4,5-c]quinolin-2-one]",solubility,Solubility at pH 6.8,14 µg/mL
same,IC50,PI3K delta,9 nM
same,IC50,[1],49 nM
same,IC50,[2],55 nM
same,IC50,[3],18 nM
"CCn1c(=O)n(-c2cn(C)nc2C)c2c3cc(-c4cncc(N)c4)ccc3ncc21 [Example 245, 8-(5-Amino-pyridin-3-yl)-1-(1,3-dimethyl-1H-pyrazol-4-yl)-3-ethyl-1,3-dihydro-imidazo[4,5-c]quinolin-2-one]",solubility,Solubility at pH 6.8,129 µg/mL
same,IC50,PI3K delta,30 nM
same,IC50,[1],719 nM
same,IC50,[2],386 nM
same,IC50,[3],730 nM
"Cc1nn(CC(=O)N2CCC2)cc1-n1c(=O)n(C)c2cnc3ccc(-c4cnc(N5CCCC5)nc4)cc3c21 [Example 247.2, 1-[1-(2-Azetidin-1-yl-2-oxo-ethyl)-3-methyl-1H-pyrazol-4-yl]-3-methyl-8-(2-pyrrolidin-1-yl-pyrimidin-5-yl)-1,3-dihydro-imidazo[4,5-c]quinolin-2-one]",solubility,Solubility at pH 6.8,56 µg/mL
same,IC50,PI3K delta,794 nM
same,IC50,[1],288 nM
same,IC50,[2],87 nM
same,IC50,[3],45 nM
